Source: article PMC2678990, “Stilbene glycosides are natural product inhibitors of FGF-2-induced angiogenesis” (BMC Cell Biology, 2009)

Tests used:
FGFR-2 (Homo sapiens) = system: T1, FGFR-2 (Homo sapiens); test: ELISA binding assay of FGF-2 to soluble receptor; conditions: added together with FGF-2, no pre-incubation
T1 construct: coated overnight with 2 μg/ml of the soluble receptors (FGFR-1 or -2 and VEGFR-1 or -2); purchased Santa Cruz Biotechnology (receptor); R&D Systems (FGF-2)
Protocol: (§1) Figure 8 The effect of increasing concentrations of compound 1 on FGF-2 binding to FGFR-1 and -2. The soluble receptor was coated onto the wells of a 96-well plate and blocked with 1% BSA. […] After 2 h the plate was washed and incubated with antibodies to the growth factor, then peroxidase-conjugated IgG for 45 min. Peroxidase substrate was added and the absorbance read at 405 nm (se below for detail).
(§2) Competition between growth factors, their cell surface receptors and test compounds was assessed in an ELISA assay as described by. A 96-well plate was coated overnight with 2 μg/ml of the soluble receptors (FGFR-1 or -2 and VEGFR-1 or -2) and blocked with 1% BSA in PBS containing 0.05% Tween-20. […] The plate was washed (× 3 with PBS-Tween-20) and incubated with anti-FGF-2 IgG (1:500 in PBS-Tween-20) or anti-VEGF IgG (!:250 in PBS-Tween-20) for 45 min, washed and incubated with horseradish peroxidase conjugated goat anti-IgG (Santa Cruz, 1:1000) for a further 45 min. After washing (× 3), ABTS peroxidase substrate was added and the absorbance read at 405 nm. IC50 values were calculated from the data using the EZ-Fit enzyme kinetic software (Perella Scientific Inc., Amherst, USA).

FGFR-1 (Homo sapiens) = system: T2, FGFR-1 (Homo sapiens); test: ELISA binding assay of FGF-2 to soluble receptor; conditions: added together with FGF-2, no pre-incubation
T2 construct: coated overnight with 2 μg/ml of the soluble receptors (FGFR-1 or -2 and VEGFR-1 or -2); purchased Santa Cruz Biotechnology (receptor); R&D Systems (FGF-2)
Protocol: as §1, §2

HDMEC [1] = test: EGF-induced proliferation; assay type: cell-based, human; conditions: EGF 75 ng/ml, 72 h, NS = inhibition less than 50%
Protocol: (§3) Cells were seeded in triplicate at a concentration of 6.0 × 10^5/ml, in 2 ml of complete medium in 6-well plates. […] Growth factors, FGF-2 (25 ng/ml), EGF (75 ng/ml) and VEGF (10 ng/ml) and test compounds at different concentration were added and cells incubated for a further 72 h. Control wells were treated with 5 μl DMSO. Concentration ranges of test compounds and pre-incubation times were based on pilot studies. After 72 h, cells were washed in PBS, detached in 0.05%w/v trypsin in PBS, and counted on a Coulter counter (Coulter Electronics, Hialeah, FL) set to a threshold of 30 μm. Experiments were performed in triplicate and repeated at least twice.

HDMEC [2] = test: Toxicity: MTT and active caspase-3 assays; assay type: cell-based, human
Protocol: Stilbene glycoside toxicity was determined using the MTT and active caspase-3 assays. BAECs or HDMECs (7.5 × 10^3) were seeded in a 96 well plate and incubated for 4 h to allow cell adhesion. The test compound or staurosporine (1 μM), an inducer of active caspase-3 and therefore of apoptosis was added to the wells. Control cells were treated with PBS and the plate was incubated at room temperature for 72 hours. MTT reagent (10 μl) was added followed by incubation at room temperature for 2–4 h. When a purple precipitate was visible, detergent reagent (100 μl) was added to the plates and incubated at room temperature for 2 h in the dark. Absorbance was measured at 570 nm using a microplate reader.
In the apoptosis assay, HDMECs or BAEC (4 × 10^4/ml) in complete medium were added to the chambers slide and allowed to adhere for 24 h. The test compound (X μM) or staurosporine (1 μM) were added to all wells except control (PBS) and incubated for 24 hours. Wells treated with staurosporine were immediately washed (PBS) and fixed (4% paraformaldehyde) when cell morphology became round (2–4 h). After washing and fixing, cells were permeablized (0.1% Triton X-100; 10 min), washed (× 5~5 min each), air dried and blocked with 1% BSA in 1:50 TBS-Tween for 1 h at room temperature. Cells were incubated with goat anti-active caspase-3 (R&D system, UK; 1% BSA in TBS-Tween) for 1 h. […]

BAEC [3] = test: FGF-2-induced tube formation in Matrigel; assay type: cell-based, bovine; conditions: Matrigel; for IC50: 24 h, FGF-2 25 ng/ml
Protocol: Cells (1.0 × 10^6/ml) were mixed with an equal volume of Matrigel (Becton -Dickinson, Oxford, UK; prepared according to the supplier's instructions) at 4°C. Aliquots (80 μl) were added to the wells of a 48-well plate and allowed to polymerise (1 h) then 500 μl of 15% FCS containing FGF-2 (25 ng/ml; or other growth factors), with or without test compounds was added. The cells were incubated for 24 h at 37°C then fixed in 4% paraformaldehyde (5 min), washed in cold ethanol and the plate air dried. Cells were stained with Geimsa (30 s), air dried and photographed. Ten random fields were selected and the number of closed tubes counted.

BAEC [4] = test: EGF-induced proliferation; assay type: cell-based, bovine; conditions: EGF 75 ng/ml, 72 h, NS = inhibition less than 50%
Protocol: as §3

BAEC [5] = test: VEGF-induced proliferation; assay type: cell-based, bovine; conditions: 72 h, NS = inhibition less than 50%
Protocol: as §3

[6] = system: chick chorioallantoic membrane; test: Chick chorioallantoic membrane (CAM) assay; assay type: in vivo
Protocol: The angiogenic activity of test compounds was determined using the semi-quantitative chick chorioallantoic assay (CAM) as described previously. To expose the CAM a window was created in the shells of 4 day-old chicken eggs. […] […] This approach enabled calculation of an accumulated response in each group. To photograph the membrane, 2 cm^3 of a 50% emulsion of aqueous paraffin oil containing 2% Tween-80 was injected at the site of application and photographed using a Leitz dissecting microscope. Each experiment was performed five times and statistical significance was determined by the Mann-Whitney U test and the data is expressed as a median value (m).

T1 sequence (P09038 143-288): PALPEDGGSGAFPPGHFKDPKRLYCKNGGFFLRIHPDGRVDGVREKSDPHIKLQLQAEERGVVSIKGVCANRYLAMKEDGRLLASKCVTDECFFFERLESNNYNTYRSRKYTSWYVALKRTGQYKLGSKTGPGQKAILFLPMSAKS
T2 sequence (P09038 143-288): as above

Effect on FGF-2 binding to FGFR-2 when added with FGF-2 (FGFR-2 (Homo sapiens)): no significant inhibitory effect
Effect on FGF-2 binding to FGFR-1 when added with FGF-2 (FGFR-1 (Homo sapiens)): no significant inhibitory effect
IC50 (BAEC [3]; Bos taurus): 11.1 ± 0.28 µM
IC50 (BAEC [3]): 18.2 ± 0.65 µM
Inflammatory or angiogenic response of compound alone ([6]; 10 μg compound alone, without FGF-2): no inflammatory or angiogenic response
Structure (SMILES): COc1cc(C=Cc2ccc(O)cc2)cc(OC2OC(COC3OC(C)C(O)C(O)C3O)C(O)C(O)C2OC2OC(C)C(O)C(O)C2O)c1 (stereo not drawn) [Compound 1]
EGF-induced proliferation, IC50 (HDMEC [1]): no significant inhibitory effect
IC50 (HDMEC [1]; Homo sapiens): > 71.5 µM
Cytotoxic effect (HDMEC [2]): no significant cytotoxic effect
Effect on tube formation in the absence of FGF-2 (BAEC [3]; without FGF-2): no inhibitory effect
IC50 (BAEC [4]; Bos taurus): > 71.5 µM
EGF-induced proliferation, IC50 (BAEC [4]): no significant inhibitory effect
VEGF-induced proliferation, IC50 (BAEC [5]): no significant inhibitory effect
IC50 (BAEC [5]; Bos taurus): > 71.5 µM
In vivo CAM assay, inhibition of FGF-2-induced angiogenesis ([6]; 10 μg compound with FGF-2, 6 days exposure, listed as I): complete inhibition
Degree of angiogenesis (m), median score ([6]; 10 μg compound with FGF-2, scale 0 to 3 or greater): 0
